In patent publication US8338465B2, “Cyclic carboxylic acid rhodanine derivatives for the treatment and prevention of tuberculosis” (priority 2006, dated 2012):
Read-outs that look alike come from different tables or passages of the source.

Molecular target: T1, dihydrolipoamide acyltransferase (DlaT) (Mycobacterium tuberculosis, UniProt P9WIS7)
T1 sequence (P9WIS7 1-553): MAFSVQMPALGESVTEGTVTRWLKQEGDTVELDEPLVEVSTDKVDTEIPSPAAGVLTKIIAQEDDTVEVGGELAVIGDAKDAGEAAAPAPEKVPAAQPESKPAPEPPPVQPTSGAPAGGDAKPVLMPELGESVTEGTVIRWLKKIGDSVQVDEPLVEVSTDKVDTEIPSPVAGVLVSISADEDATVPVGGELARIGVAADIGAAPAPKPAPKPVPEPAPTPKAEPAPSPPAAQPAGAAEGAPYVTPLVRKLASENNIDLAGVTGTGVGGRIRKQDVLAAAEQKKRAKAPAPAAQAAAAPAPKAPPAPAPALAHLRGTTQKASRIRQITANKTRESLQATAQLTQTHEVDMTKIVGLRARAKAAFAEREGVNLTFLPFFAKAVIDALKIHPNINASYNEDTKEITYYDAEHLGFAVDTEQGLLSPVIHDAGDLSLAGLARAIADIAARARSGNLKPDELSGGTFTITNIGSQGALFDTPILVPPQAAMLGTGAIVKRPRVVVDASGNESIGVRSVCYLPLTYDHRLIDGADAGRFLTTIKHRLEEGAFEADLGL
Experiment: DlaT inhibition (Dlat IC50); DTNB peroxidase assay with Lpd, DlaT and AhpD
Format: biochemical

[1] = Table 1, Compounds A1 to A294, read-out: Dlat IC50 category
[2] = Dlat IC50 category, Table 21, Prodrugs (Examples U1 to U10)

Row | Compound | IC50 (Dlat IC50 category) [µM] | IC50 [1] [µM] | also measured
1 | O=C(O)C1CCC(N2C(=O)C(=Cc3ccc(-c4ccccc4F)s3)SC2=S)CC1 (stereo not drawn) [Compound C47, 4-{5-[1-[5-(2-fluoro-phenyl)-thiophen-2-yl]-methylidene]-4-oxo-2-thioxo-thiazolidin-3-yl}-cyclohexanecarboxylic acid] | 11 to 40 |  | 
2 | O=C(O)CN1C(=O)C(=Cc2ccc(-c3ccc(Cl)cc3Cl)o2)SC1=S [Compound B43] | < 10 |  | 
3 | O=C(O)C(Cc1ccccc1)N1C(=O)C(=Cc2ccc(-c3c(Cl)cccc3Cl)o2)SC1=S (stereo not drawn) [Compound B49] | < 10 |  | 
4 | CS(=O)(=O)c1ccc(-c2ccc(C=C3SC(=S)N(C4CCC(C(=O)O)CC4)C3=O)o2)cc1 (stereo not drawn) [Compound C59, 4-{5-[5-(4-Methanesulfonyl-phenyl)-furan-2-ylmethylene]-4-oxo-2-thioxo-thiazolidin-3-yl}-cyclohexanecarboxylic acid] | < 10 |  | 
5 | COc1ccc(-c2ccc(C=C3SC(=S)N(c4cc(C(=O)O)ccc4F)C3=O)o2)cc1F [Compound A178] |  | < 10 | 
6 | COc1ccc(-c2ccc(C=C3SC(=S)N(c4cccc(C(=O)O)c4)C3=O)o2)c(C)c1 [Compound A159] |  | 11 to 40 | 
7 | CCCc1ccc(-c2ccc(C=C3SC(=S)N(Nc4ccccc4C(=O)O)C3=O)o2)cc1 [Compound D60, 2-{5-[1-[5-(4-propyl-phenyl)-furan-2-yl]-methylidene]-4-oxo-2-thioxo-thiazolidin-3-ylamino}-benzoic acid] | < 10 |  | 
8 | Cc1cc(N(C)C)ccc1-c1ccc(C=C2SC(=S)N(c3cccc(C(=O)O)c3)C2=O)o1 [Compound A182] |  | < 10 | 
9 | O=C(O)C(c1ccccc1)N1C(=O)C(=Cc2ccc(-c3ccc(Cl)cc3Cl)o2)SC1=S (stereo not drawn) [Compound B44] | < 10 |  | 
10 | CS(=O)(=O)c1ccc(-c2ccc(C=C3SC(=S)N(c4cc(C(=O)O)cc(C(F)(F)F)c4)C3=O)o2)cc1 [Compound A267] |  | < 10 | 
11 | O=C(O)c1cccc(N2C(=O)C(=Cc3ccc(-c4ccccc4Cl)s3)SC2=S)c1 [Compound A189] |  | < 10 | 
12 | CC(C)(C)OC(=O)Nc1ccccc1-c1ccc(C=C2SC(=S)N(c3cc(C(=O)O)ccc3F)C2=O)o1 [Compound A164] |  | 11 to 40 | 
13 | Cc1ccccc1-c1cccc(C=C2SC(=S)N(C3CCCC(C(=O)O)C3)C2=O)n1 (stereo not drawn) [Compound C10, 3-[4-Oxo-2-thioxo-5-(6-o-tolyl-pyridin-2-ylmethylene)-thiazolidin-3-yl]-cyclohexanecarboxylic acid] | 41 to 80 |  | 
14 | CC(C)(c1ccccc1)c1ccc(-c2ccc(C=C3SC(=S)N(c4cccc(C(=O)O)c4)C3=O)o2)cc1 [Compound A95] |  | < 10 | 
15 | O=C(O)C1CCCC(N2C(=O)C(=Cc3ccc(-c4ccc(C(F)(F)F)cc4)o3)SC2=S)C1 (stereo not drawn) [Compound C37, 3-{4-oxo-2-thioxo-5-[1-[5-(4-trifluoromethyl-phenyl)-furan-2-yl]-methylidene]-thiazolidin-3-yl}-cyclohexanecarboxylic acid] | < 10 |  | 
16 | Cc1cc(Cl)ccc1-c1ccc(C=C2SC(=S)N(C3CCCC(C(=O)O)C3)C2=O)o1 (stereo not drawn) [Compound C20, 3-{5-[1-[5-(4-chloro-2-methyl-phenyl)-furan-2-yl]-methylidene]-4-oxo-2-thioxo-thiazolidin-3-yl}-cyclohexanecarboxylic acid] | < 10 |  | 
17 | O=C(O)C1CCCC(N2C(=O)C(=Cc3ccc(-c4ccc(C5CCCCC5)cc4)o3)SC2=S)C1 (stereo not drawn) [Compound C2, 3-{5-[1-[5-(4-cyclohexyl-phenyl)-furan-2-yl]-methylidene]-4-oxo-2-thioxo-thiazolidin-3-yl}-cyclohexanecarboxylic acid] | < 10 |  | 
18 | Cc1ccc(C(=O)O)cc1N1C(=O)C(=Cc2ccc(-c3ccc(C4CCCCC4)cc3)o2)SC1=S [Compound A82] |  | < 10 | 
19 | Cc1ccc(-c2cccc(C=C3SC(=S)N(c4cc(C(=O)O)ccc4F)C3=O)c2)cc1 [Compound A243] |  | < 10 | 
20 | O=C(O)COc1ccc(N2C(=O)C(=Cc3ccc(-c4ccc(Cl)cc4)o3)SC2=S)cc1 [Compound A45] |  | 11 to 40 | 
21 | O=C(O)CCCCCN1C(=O)C(=Cc2ccc(-c3cc(C(F)(F)F)ccc3Cl)o2)SC1=S [Compound B20] | < 10 |  | 
22 | CCc1ccccc1-c1ccc(C=C2SC(=S)N(Nc3ccccc3C(=O)O)C2=O)o1 [Compound D58, 2-{5-[1-[5-(2-ethyl-phenyl)-furan-2-yl]-methylidene]-4-oxo-2-thioxo-thiazolidin-3-ylamino}-benzoic acid] | < 10 |  | 
23 | O=C(O)c1cc(N2C(=O)C(=Cc3ccc(-c4ccc(Cl)cc4)o3)SC2=S)ccc1O [Compound A34] |  | < 10 | 
24 | CCOc1ccc(-c2ccc(C=C3SC(=S)N(c4cc(C(=O)O)ccc4F)C3=O)o2)cc1 [Compound A218] |  | < 10 | 

Row | Compound | IC50 (Dlat IC50 category) [µM] | IC50 [1] [µM] | also measured
25 | CCCCc1ccc(-c2ccc(C=C3SC(=S)N(Nc4ccccc4C(=O)O)C3=O)o2)cc1 [Compound D59, 2-{5-[1-[5-(4-butyl-phenyl)-furan-2-yl]-methylidene]-4-oxo-2-thioxo-thiazolidin-3-ylamino}-benzoic acid] | < 10 |  | 
26 | O=C(O)C(Cc1ccc(O)cc1)N1C(=O)C(=Cc2ccc(-c3ccc(Cc4ccccc4)cc3)o2)SC1=S (stereo not drawn) [Compound B58] | < 10 |  | 
27 | Cc1ccccc1-c1ccc(C=C2SC(=S)N(c3ccc(F)c(C(=O)O)c3)C2=O)o1 [Compound A257] |  | 11 to 40 | 
28 | CSc1ccc(-c2ccc(C=C3SC(=S)N(C4CCCC(C(=O)NC(CO)(CO)CO)C4)C3=O)o2)cc1 (stereo not drawn) [Compound U7, 3-{5-[1-[5-(4-Methylsulfanyl-phenyl)-furan-2-yl]-methylidene]-4-oxo-2-thioxo-thiazolidin-3-yl}-cyclohexanecarboxylic acid (2-hydroxy-1,1-bis-hydroxymethyl-ethyl)-amide] |  |  | IC50 [2]: 41 to 80 µM
29 | CSc1cccc(-c2ccc(C=C3SC(=S)N(c4cccc(C(=O)O)c4)C3=O)o2)c1 [Compound A236] |  | < 10 | 
30 | CC(C)c1cccc(-c2ccc(C=C3SC(=S)N(c4cccc(C(=O)O)c4)C3=O)o2)c1 [Compound A54] |  | < 10 | 
31 | Cc1cc(C)c(-c2ccc(C=C3SC(=S)N(Nc4ccccc4C(=O)O)C3=O)o2)c(C)c1 [Compound D28, 2-{4-Oxo-2-thioxo-5-[5-(2,4,6-trimethyl-phenyl)-furan-2-ylmethylene]-thiazolidin-3-ylamino}-benzoic acid] | < 10 |  | 
32 | Cc1cc(Cl)ccc1-c1ccc(C=C2SC(=S)N(c3cccc(C(=O)O)c3)C2=O)o1 [Compound A169] |  | < 10 | 
33 | Cc1ccccc1-c1ccc(C=C2SC(=S)N(C3CCCC(C(=O)O)C3)C2=O)o1 (stereo not drawn) [Compound C60, 3-{4-oxo-2-thioxo-5-[1-(5-o-tolyl-furan-2-yl)-methylidene]-thiazolidin-3-yl}-cyclohexanecarboxylic acid] | < 10 |  | 
34 | CSc1ccc(-c2ccc(C=C3SC(=S)N(c4cccc(C(=O)O)c4)C3=O)o2)cc1 [Compound A238] |  | < 10 | 
35 | O=C(O)c1cccc(N2C(=O)C(=Cc3ccc(-c4ccccc4-c4ccccc4)o3)SC2=S)c1 [Compound A244] |  | < 10 | 
36 | CC(C)Cc1ccc(-c2ccc(C=C3SC(=S)N(C(C(=O)O)c4ccccc4)C3=O)o2)cc1 (stereo not drawn) [Compound B78] | < 10 |  | 
37 | O=C(O)c1cc(N2C(=O)C(=Cc3ccc(-c4ccccc4Cl)o3)SC2=S)cc([N+](=O)[O-])c1 [Compound A88] |  | < 10 | 
38 | COc1ccccc1-c1ccc(C=C2SC(=S)N(c3cc(C(=O)O)ccc3F)C2=O)o1 [Compound A139] |  | < 10 | 
39 | COc1cc(F)ccc1-c1ccc(C=C2SC(=S)N(Nc3ccccc3C(=O)O)C2=O)o1 [Compound D25, 2-{5-[1-[5-(4-fluoro-2-methoxy-phenyl)-furan-2-yl]-methylidene]-4-oxo-2-thioxo-thiazolidin-3-ylamino}-benzoic acid] | < 10 |  | 
40 | CCCc1ccc(-c2ccc(C=C3SC(=S)N(c4cc(C(=O)O)cc(C(F)(F)F)c4)C3=O)o2)cc1 [Compound A272] |  | 11 to 40 | 
41 | CSc1ccc(-c2ccc(C=C3SC(=S)N(C4CCCC(C(=O)OCC(C)(CO)CO)C4)C3=O)o2)cc1 (stereo not drawn) [Compound U6, 3-{5-[1-[5-(4-Methylsulfanyl-phenyl)-furan-2-yl]-methylidene]-4-oxo-2-thioxo-thiazolidin-3-yl}-cyclohexanecarboxylic acid 3-hydroxy-2-hydroxymethyl-2-methyl-propyl ester] |  |  | IC50 [2]: 41 to 80 µM
42 | CC(=O)NS(=O)(=O)c1cccc(N2C(=O)C(=Cc3ccc(-c4ccccc4Cl)o3)SC2=S)c1 [Compound A37] |  | 11 to 40 | 
43 | CC(C)C(C(=O)O)N1C(=O)C(=Cc2ccc(-c3ccccc3Cl)o2)SC1=S (stereo not drawn) [Compound B101] | < 10 |  | 
44 | O=C(O)c1ccc(F)c(N2C(=O)C(=Cc3ccc(-c4ccc(C(F)(F)F)cc4)o3)SC2=S)c1 [Compound A201] |  | < 10 | 
45 | O=C(O)c1cccc(N2C(=O)C(=Cc3ccc(-c4ccc(OCc5ccccc5)cc4)o3)SC2=S)c1 [Compound A219] |  | 11 to 40 | 
46 | Cc1ccccc1-c1cccc(C=C2SC(=S)N(c3cc(C(=O)O)ccc3F)C2=O)n1 [Compound A161] |  | < 10 | 
47 | O=C(O)C1CCC(N2C(=O)C(=Cc3ccc(-c4cccc(C(F)(F)F)c4)o3)SC2=S)CC1 (stereo not drawn) [Compound C17, 4-{5-[1-[5-(3-trifluoromethyl-phenyl)-furan-2-yl]-methylidene]-4-oxo-2-thioxo-thiazolidin-3-yl}-cyclohexanecarboxylic acid] | < 10 |  | 
48 | NC(=O)c1cccc(N2C(=O)C(=Cc3ccc(-c4ccccc4Cl)o3)SC2=S)c1 [Compound A75] |  | 11 to 40 | 
